# Experimental data: publication PMC4503349 (PLoS ONE, 2015)
# Counter-ions that a name gives are not always drawn.
# What was measured:
# [1] = biological target: T1, calcineurin (CaN; CnAα catalytic subunit) (Homo sapiens, UniProt Q08209); experiment: malachite green phosphatase assay with RII phosphopeptide, absorbance dose-response, calmodulin present; format: biochemical
# T1 construct: gene PPP3CA; recombinant human CaN, comprising CnAα and CnB subunits; with calcineurin B (CnB); calmodulin
# [2] = biological target: T1, calcineurin (CaN; CnAα catalytic subunit); experiment: malachite green phosphatase assay with RII phosphopeptide; format: biochemical
compound,measurement,setting,value
"CN1CCN(CCCN2c3ccccc3Sc3ccc(C(F)(F)F)cc32)CC1 [LDN-0013906, tri-fluoperazine dihydrochloride]",IC50,[1],4.5 µM
O=C(O)[C@@H]1[C@H](C(=O)O)[C@H]2CC[C@@H]1O2 [endothall],IC50,[2],12.6 µM
"Fc1ccc(C(c2ccc(F)cc2)N2CCN(C/C=C/c3ccccc3)CC2)cc1 [LDN-0013905, flunarizine hydrochloride]",IC50,[1]; read-out: IC50,106 µM
